Data as given in US12257237B2 (priority 2017, dated 2025).
Values joined by “and” are separate entries in the source; they are usually repeats but may differ in a detail not shown here. Equal values may be shown once.

Assay: Drug tolerability (body weight) in DD013 dedifferentiated liposarcoma xenograft model
Assay type: in vivo, Athymic nude mice
Parameters: key to Animal status: †: sacrificed moribund
Conditions: for Mouse body weight: individual mice
Experimental: Experiments were performed with female Athymic nude mice, 9-10 weeks old obtained from Harlan Laboratories (Udine, Italy). They were maintained under Specific Pathogen Free conditions with constant temperature and humidity, according to the institutional guidelines.
Tumour growth mice was monitored two/three times a week (depending on tumour growth rate, to avoid unnecessary stress to the animals) by Vernier caliper. Mice were sacrificed when tumour reached a mean weight of 2±0.5 gr. The antitumour activity will be expressed as T/C %, where T and C were the mean tumour weight of treated and control groups, respectively. Mice were monitored daily and weighted at least two times a week. Tolerability was evaluated on the basis of body weight loss (BWL) and clinical observation.

[1] = EDO40 (40 mg/kg), day 23 from inoculum
[2] = EDO40 (40 mg/kg), day 26 from inoculum
[3] = EDO40 (40 mg/kg), day 33 from inoculum
[4] = EDO40 (40 mg/kg), day 36 from inoculum
[5] = EDO40 (40 mg/kg), day 40 from inoculum
[6] = EDO40 (40 mg/kg), day 43 from inoculum
[7] = EDO40 (40 mg/kg), day 50 from inoculum
[8] = EDO40 (40 mg/kg), day 54 from inoculum
[9] = EDO40 (40 mg/kg), day 58 from inoculum
[10] = EDO40 (40 mg/kg), day 62 from inoculum
[11] = EDO40 (40 mg/kg), day 65 from inoculum
[12] = EDO40 (40 mg/kg), day 69 from inoculum
[13] = EDO40 (40 mg/kg), day 72 from inoculum
[14] = EDO40 (40 mg/kg), day 75 from inoculum
[15] = EDO40 (40 mg/kg), day 79 from inoculum
[16] = EDO40 (40 mg/kg), day 83 from inoculum
[17] = EDO40 (40 mg/kg), day 87 from inoculum
[18] = EDO40 (40 mg/kg), day 90 from inoculum
[19] = EDO40 (40 mg/kg), day 94 from inoculum
[20] = EDO40 (40 mg/kg), day 98 from inoculum
[21] = EDO40 (40 mg/kg), day 100 from inoculum
[22] = EDO60 (60 mg/kg), day 23 from inoculum
[23] = EDO60 (60 mg/kg), day 26 from inoculum
[24] = EDO60 (60 mg/kg), day 29 from inoculum
[25] = EDO60 (60 mg/kg), day 33 from inoculum
[26] = EDO60 (60 mg/kg), day 36 from inoculum
[27] = EDO60 (60 mg/kg), day 40 from inoculum
[28] = EDO80 (80 mg/kg), day 23 from inoculum
[29] = EDO80 (80 mg/kg), day 26 from inoculum
[30] = EDO80 (80 mg/kg), day 29 from inoculum
[31] = EDO80 (80 mg/kg), day 33 from inoculum
[32] = EDO80 (80 mg/kg), day 36 from inoculum
[33] = EDO80 (80 mg/kg), day 40 from inoculum
[34] = EDO80 (80 mg/kg), day 43 from inoculum
[35] = EDO80 (80 mg/kg), day 47 from inoculum
[36] = EDO80 (80 mg/kg), day 50 from inoculum
[37] = EDO80 (80 mg/kg), day 54 from inoculum
[38] = EDO80 (80 mg/kg), day 58 from inoculum
[39] = EDO80 (80 mg/kg), day 62 from inoculum
[40] = EDO80 (80 mg/kg), day 65 from inoculum
[41] = EDO80 (80 mg/kg), day 69 from inoculum
[42] = EDO80 (80 mg/kg), day 72 from inoculum
[43] = EDO80 (80 mg/kg), day 75 from inoculum
[44] = EDO80 (80 mg/kg), day 79 from inoculum
[45] = EDO80 (80 mg/kg), day 83 from inoculum
[46] = EDO80 (80 mg/kg), day 87 from inoculum
[47] = EDO80 (80 mg/kg), day 90 from inoculum
[48] = EDO80 (80 mg/kg), day 94 from inoculum
[49] = EDO80 (80 mg/kg), day 98 from inoculum
[50] = EDO80 (80 mg/kg), day 100 from inoculum
[51] = EDO80 (80 mg/kg), day 103 from inoculum

## Cn1c(CCCCCCC(=O)NO)nc2cc(N(CCCl)CCCl)ccc21 [EDO-S101, 7-(5-(bis(2-chloroethyl)amino)-1-methyl-1H-benzo[d]imidazol-2-yl)-N-hydroxyheptanamide]
80 mg/kg group, between day 75 and 79 from inoculum
  rapid BWL of one mouse (sacrificed): > 30%
[1]
  BWL %: 0.0%
  Mouse body weight, Mean: 23.6 g
[2]
  BWL %: −1.7%
  Mouse body weight, Mean: 23.2 g
EDO40 (40 mg/kg), day 29 from inoculum
  Mouse body weight, Mean: 24.7 g
[3]
  BWL %: 2.4%
  Mouse body weight, Mean: 24.2 g
[4]
  BWL %: 4.1%
  Mouse body weight, Mean: 24.6 g
[5]
  BWL %: 6.1%
  Mouse body weight, Mean: 25.0 g
[6]
  BWL %: 6.2%
  Mouse body weight, Mean: 25.1 g
EDO40 (40 mg/kg), day 47 from inoculum
  Mouse body weight, Mean: 26.0 g
[7]
  BWL %: 11.7%
  Mouse body weight, Mean: 26.4 g
[8]
  BWL %: 10.1%
  Mouse body weight, Mean: 26.0 g
[9]
  BWL %: 8.3%
  Mouse body weight, Mean: 25.6 g
[10]
  BWL %: 11.0%
  Mouse body weight, Mean: 26.2 g
[11]
  BWL %: 9.1%
  Mouse body weight, Mean: 25.8 g
[12]
  BWL %: 13.3%
  Mouse body weight, Mean: 26.8 g
[13]
  BWL %: 13.3%
  Mouse body weight, Mean: 26.8 g
[14]
  BWL %: 15.6%
  Mouse body weight, Mean: 27.3 g
[15]
  BWL %: 13.8%
  Mouse body weight, Mean: 26.9 g
[16]
  BWL %: 14.3%
  Mouse body weight, Mean: 27.0 g
[17]
  BWL %: 14.4%
  Mouse body weight, Mean: 27.0 g
[18]
  BWL %: 17.9%
  Mouse body weight, Mean: 27.8 g
[19]
  BWL %: 16.0%
  Mouse body weight, Mean: 27.4 g
[20]
  BWL %: 18.3%
  Mouse body weight, Mean: 27.9 g
[21]
  BWL %: 15.7%
  Mouse body weight, Mean: 27.3 g
[22]
  BWL %: 0.0%
  Mouse body weight, Mean: 23.3 g
[23]
  BWL %: −4.5%
  Mouse body weight, Mean: 22.3 g
[24]
  BWL %: 1.7%
  Mouse body weight, Mean: 23.7 g
[25]
  BWL %: −0.8%
  Mouse body weight, Mean: 23.1 g
[26]
  BWL %: 2.5%
  Mouse body weight, Mean: 23.9 g
[27]
  BWL %: −0.6%
  Mouse body weight, Mean: 23.2 g
EDO60 (60 mg/kg), day 43 from inoculum
  Mouse body weight, Mean: 24.1 g
EDO60 (60 mg/kg), day 47 from inoculum
  Mouse body weight, Mean: 25.2 g
EDO60 (60 mg/kg), day 50 from inoculum
  Mouse body weight, Mean: 25.3 g
EDO60 (60 mg/kg), day 54 from inoculum
  Mouse body weight, Mean: 25.6 g
EDO60 (60 mg/kg), day 58 from inoculum
  Mouse body weight, Mean: 25.5 g
EDO60 (60 mg/kg), day 62 from inoculum
  Mouse body weight, Mean: 25.5 g
EDO60 (60 mg/kg), day 69 from inoculum
  Mouse body weight, Mean: 25.9 g
EDO60 (60 mg/kg), day 72 from inoculum
  Mouse body weight, Mean: 26.3 g
EDO60 (60 mg/kg), day 75 from inoculum
  Mouse body weight, Mean: 26.0 g
EDO60 (60 mg/kg), day 79 from inoculum
  Mouse body weight, Mean: 24.8 g
EDO60 (60 mg/kg), day 83 from inoculum
  Mouse body weight, Mean: 24.5 g
EDO60 (60 mg/kg), day 87 from inoculum
  Mouse body weight, Mean: 24.6 g
EDO60 (60 mg/kg), day 90 from inoculum
  Mouse body weight, Mean: 24.8 g
EDO60 (60 mg/kg), day 94 from inoculum
  Mouse body weight, Mean: 25.3 g
EDO60 (60 mg/kg), day 98 from inoculum
  Mouse body weight, Mean: 26.2 g
EDO60 (60 mg/kg), day 111 from inoculum
  Mouse body weight, Mean: 25.6 g
EDO60 (60 mg/kg), day 114 from inoculum
  Mouse body weight, Mean: 25.3 g
EDO60 (60 mg/kg), day 118 from inoculum
  Mouse body weight, Mean: 25.5 g
[28]
  BWL %: 0.0%
  Mouse body weight, Mean: 24.2 g
  Mouse body weight: 26.1 g and 25.7 g and 25 g and 23.1 g and 24 g and 26.2 g and 22.4 g and 22.3 g
[29]
  BWL %: −3.4%
  Mouse body weight, Mean: 21.9 g
  Mouse body weight: 23.4 g and 23.6 g and 22 g and 21.3 g and 20.9 g and 20.1 g and 22.4 g and 21.6 g and 21.9 g
[30]
  BWL %: 4.2%
  Mouse body weight, Mean: 21.7 g
  Mouse body weight: 22.7 g and 22.6 g and 21.5 g and 22.2 g and 21 g (3×) and 21.6 g (2×)
[31]
  BWL %: 1.3%
  Mouse body weight, Mean: 23.7 g
  Mouse body weight: 25.1 g (2×) and 24 g and 23.1 g and 21.9 g and 22.5 g
[32]
  BWL %: 5.9%
  Mouse body weight, Mean: 25.5 g
  Mouse body weight: 27 g and 25.3 g and 24.7 g and 23.8 g and 26.3 g and 24.2 g and 24.6 g
[33]
  BWL %: 2.5%
  Mouse body weight: 28.6 g and 27 g and 25.7 g and 24.4 g (2×) and 27.9 g and 24 g
[34]
  BWL %: 8.0%
  Mouse body weight, Mean: 25.8 g
  Mouse body weight: 28.5 g and 26.5 g and 25 g (2×) and 26.9 g and 24.2 g and 24.4 g
[35]
  BWL %: 5.9%
  Mouse body weight, Mean: 25.9 g
  Mouse body weight: 27.9 g and 26.1 g and 24.6 g (2×) and 24.2 g and 27.4 g and 24.4 g
[36]
  BWL %: 7.6%
  Mouse body weight, Mean: 25.8 g
  Mouse body weight: 27.9 g and 26.8 g and 24.6 g and 24.4 g and 26.3 g and 23.2 g and 25.3 g
[37]
  BWL %: 8.0%
  Mouse body weight, Mean: 26.2 g
  Mouse body weight: 27.7 g and 26.7 g and 25.8 g and 25 g (2×) and 28 g and 24.8 g
[38]
  BWL %: 12.2%
  Mouse body weight, Mean: 27.0 g
  Mouse body weight: 28.7 g and 29.8 g and 28 g and 27.4 g and 26.9 g and 25 g (2×)
[39]
  BWL %: 8.4%
  Mouse body weight, Mean: 23.5 g
  Mouse body weight: 25.7 g and 24.4 g and 23.9 g and 24 g and 22.7 g and 21.9 g and 23.7 g and 23.8 g and 21.4 g
[40]
  BWL %: 8.0%
  Mouse body weight, Mean: 23.9 g
[41]
  BWL %: 6.3%
  Mouse body weight, Mean: 25.2 g
  Mouse body weight: 28.7 g
[42]
  BWL %: 9.7%
  Mouse body weight, Mean: 25.9 g
  Mouse body weight: 30.7 g
[43]
  BWL %: 13.9%
  Mouse body weight, Mean: 26.4 g
  Mouse body weight: 30.6 g
[44]
  BWL %: 8.8%
  Mouse body weight, Mean: 24.6 g
  Mouse body weight: 28.7 g
[45]
  BWL %: 7.6%
  Mouse body weight, Mean: 24.1 g
  Mouse body weight: 24.1 g
EDO80 (80 mg/kg), day 83 from inoculum, mouse # 56
  Animal status: †
[46]
  BWL %: 5.0%
  Mouse body weight, Mean: 23.8 g
  Mouse body weight: 25.3 g
[47]
  BWL %: 2.9%
  Mouse body weight, Mean: 25.4 g
  Mouse body weight: 29.2 g
[48]
  BWL %: 0.0%
  Mouse body weight, Mean: 27.4 g
[49]
  BWL %: 2.9%
  Mouse body weight, Mean: 28.0 g
  Mouse body weight: 31.1 g
[50]
  BWL %: 0.4%
  Mouse body weight, Mean: 27.5 g
  Mouse body weight: 29.7 g
[51]
  BWL %: −0.8%
  Mouse body weight, Mean: 27.3 g
  Mouse body weight: 25.9 g
All doses and schedules
  BWL: < 5%
